Laboratory results: patent publication US20180141962A1, “AZACARBAZOLE BTK INHIBITORS” (MERCK SHARP & DOHME CORP., priority 2015, published 2018)
Where two headings read alike, the source gives them in different places.

Target: T1, BTK enzyme (recombinant full-length BTK, hBTK) (Homo sapiens, UniProt Q06187)
T1 construct: recombinant protein from baculovirus-transfected Sf9 cells: full-length BTK, 6HIS-tag cleaved; 6HIS (cleaved yes); made in house; host or cells: baculovirus-transfected Sf9 cells
T1 sequence (Q06187 whole entry): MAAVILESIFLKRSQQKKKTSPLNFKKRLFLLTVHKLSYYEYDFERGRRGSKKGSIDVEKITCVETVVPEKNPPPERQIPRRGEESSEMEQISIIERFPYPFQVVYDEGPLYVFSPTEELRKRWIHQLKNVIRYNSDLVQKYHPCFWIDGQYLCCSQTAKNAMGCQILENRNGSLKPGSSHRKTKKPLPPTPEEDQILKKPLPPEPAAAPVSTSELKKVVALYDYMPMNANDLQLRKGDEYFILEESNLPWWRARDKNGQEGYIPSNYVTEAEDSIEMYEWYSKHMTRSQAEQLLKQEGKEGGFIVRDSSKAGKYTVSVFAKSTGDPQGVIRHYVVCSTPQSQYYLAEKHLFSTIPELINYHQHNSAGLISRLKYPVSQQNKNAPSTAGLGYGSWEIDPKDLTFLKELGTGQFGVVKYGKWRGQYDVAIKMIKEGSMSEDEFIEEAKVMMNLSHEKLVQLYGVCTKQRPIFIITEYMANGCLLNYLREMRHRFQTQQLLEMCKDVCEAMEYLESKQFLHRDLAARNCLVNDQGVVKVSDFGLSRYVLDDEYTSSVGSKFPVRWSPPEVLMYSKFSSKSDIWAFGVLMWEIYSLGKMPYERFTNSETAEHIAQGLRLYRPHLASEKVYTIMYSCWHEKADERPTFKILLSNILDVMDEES
Assay: Btk enzyme activity assay, LANCE TR-FRET
Format: biochemical
Settings: 50 pM hBTK, 2 μM biotin-A5-peptide, 25 μM ATP, 60 minute compound & enzyme incubation, 120 minutes reaction
Protocol: Btk Enzyme Activity Assay Methods
BTK enzymatic activity was determined with the LANCE (Lanthanide Chelate Excite) TR-FRET (lime-resolved fluorescence resonance energy transfer) assay. […] Phosphorylation reactions were allowed to proceed for 120 minutes. […] After 60 minutes incubation with detection reagents, reaction plates were read on a PerkinElmer EnVision plate reader using standard TR-FRET protocol. Briefly, excitation of donor molecules (Eu-chelate:anti-phospho-antibody) with a laser light source at 337 nm produces energy that can be transferred to Dylight-650 acceptor molecules if this donor:acceptor pair is within close proximity. Fluorescence intensity at both 665 nm (acceptor) and 615 nm (donor) are measured and a TR-FRET ratio calculated for each well (acceptor intensity/donor intensity). IC50 values were determined by 4 parameter robust fit of TR-FRET ratio values vs. (Log10) compound concentrations.

[1] = read-out: BTK binding potency IC50

| Structure (SMILES) | IC50 [1] [nM] | IC50 (BTK binding potency IC50 (nM)) [nM] |
| --- | --- | --- |
| COC(=O)N1CCC(c2ccc3c(c2)[nH]c2c(C(N)=O)cnc(N4CCCC5(CCNC5=O)C4)c23)CC1 (centres unmarked) [Example 56, methyl 4-[4-carbamoyl-1-(1-oxo-2,7-diazaspiro[4.5]dec-7-yl)-5H-pyrido[4,3-b]indol-7-yl]piperidine-1-carboxylate] | 3 | – |
| CN1CCC(c2ccc3c(c2)[nH]c2c(C(N)=O)cnc(N4CCCC5(CCNC5=O)C4)c23)CC1 (centres unmarked) [Example 55, 7-(1-methylpiperidin-4-yl)-1-(1-oxo-2,7-diazaspiro[4.5]dec-7-yl)-5H-pyrido[4,3-b]indole-4-carboxamide] | 1.3 | – |
| CC(C)N1CCCC2(CCCN(c3ncc(C(N)=O)c4[nH]c5ccccc5c34)C2)C1=O (centres unmarked) [Example 39, 1-[8-(1-methylethyl)-7-oxo-2,8-diazaspiro[5.5]undec-2-yl]-5H-pyrido[4,3-b]indole-4-carboxamide] | 120 | – |
| CC(C)(O)CN1CCC(c2ccc3c(c2)[nH]c2c(C(N)=O)cnc(N4CCCC5(CCNC5=O)C4)c23)CC1 (centres unmarked) [Example 54, 7-[1-(2-hydroxy-2-methylpropyl)piperidin-4-yl]-1-(1-oxo-2,7-diazaspiro[4.5]dec-7-yl)-5H-pyrido[4,3-b]indole-4-carboxamide] | 1.2 | – |
| CN1CCC(c2ccc3[nH]c4c(C(N)=O)cnc(N5CCCC6(CCNC6=O)C5)c4c3c2)CC1 (centres unmarked) [Example 60, 8-(1-methylpiperidin-4-yl)-1-(1-oxo-2,7-diazaspiro[4.5]dec-7-yl)-5H-pyrido[4,3-b]indole-4-carboxamide] | 76.9 | – |
| CC(C)(C)OC(=O)N1CCC(c2ccc3c(c2)[nH]c2c(C(N)=O)cnc(N4CCCC5(CCNC5=O)C4)c23)CC1 (centres unmarked) [Example 43, tert-butyl 4-[4-carbamoyl-1-(1-oxo-2,7-diazaspiro[4.5]dec-7-yl)-5H-pyrido[4,3-b]indol-7-yl]piperidine-1-carboxylate] | 7.4 | – |
| CN1CCCC2(CCCN(c3ncc(C(N)=O)c4[nH]c5ccccc5c34)C2)C1=O (centres unmarked) [Example 35, 1-(8-methyl-7-oxo-2,8-diazaspiro[5.5]undec-2-yl)-5H-pyrido[4,3-b]indole-4-carboxamide] | 55.2 | – |
| NC(=O)c1cnc(N2CCC[C@@]3(CCNC3=O)C2)c2c1[nH]c1cc(-c3cc[nH]c(=O)c3)ccc12 [Example 70, 1-[(5R)-1-oxo-2,7-diazaspiro[4.5]dec-7-yl]-7-(2-oxo-1,2-dihydropyridin-4-yl)-5H-pyrido[4,3-b]indole-4-carboxamide] | 5.4 | – |
| NC(=O)c1cnc(N2CCCC3(CCNC3=O)C2)c2c1[nH]c1cc(C3CCCNC3)ccc12 (centres unmarked) [Example 44, 1-(1-oxo-2,7-diazaspiro[4.5]dec-7-yl)-7-piperidin-3-yl-5H-pyrido[4,3-b]indole-4-carboxamide] | 1.6 | – |
| NC(=O)c1cnc(N2CCCC3(CCNC3=O)C2)c2c1[nH]c1ccccc12 (stereo in doubt) [Example 41, 1-[(5S)-1-oxo-2,7-diazaspiro[4.5]dec-7-yl]-5H-pyrido[4,3-b]indole-4-carboxamide] | – | 10.7 |
| NC(=O)c1cnc(N2CCC3(CCNC3)CC2)c2c1[nH]c1ccccc12 [Example 12, 1-(2,8-diazaspiro[4.5]dec-8-yl)-5H-pyrido[4,3-b]indole-4-carboxamide] | 35 | – |
| CC(C)(C)OC(=O)N1CCC(c2ccc3[nH]c4c(C(N)=O)cnc(N5CCCC6(CCNC6=O)C5)c4c3c2)CC1 (centres unmarked) [Example 46, tert-butyl 4-[4-carbamoyl-1-(1-oxo-2,7-diazaspiro[4.5]dec-7-yl)-5H-pyrido[4,3-b]indol-8-yl]piperidine-1-carboxylate] | 377 | – |
| CC(C)(C)c1ccc(N2CCC3(CCCN(c4ncc(C(N)=O)c5[nH]c6ccccc6c45)C3)C2=O)cc1 (centres unmarked) [Example 36, 1-[2-(4-tert-butylphenyl)-1-oxo-2,7-diazaspiro[4.5]dec-7-yl]-5H-pyrido[4,3-b]indole-4-carboxamide] | 9530 | – |
| CC(C)(C)OC(=O)N1CCC2(CCN(c3ncc(C(N)=O)c4[nH]c5ccccc5c34)CC2)C1 [Example 13, tert-butyl 8-(4-carbamoyl-5H-pyrido[4,3-b]indol-1-yl)-2,8-diazaspiro[4.5]decane-2-carboxylate] | 163 | – |
| CC(C)(C)OC(=O)N1CC2(CCCN(c3ncc(C(N)=O)c4[nH]c5ccccc5c34)C2)C1 [Example 28, tert-butyl 6-(4-carbamoyl-5H-pyrido[4,3-b]indol-1-yl)-2,6-diazaspiro[3.5]nonane-2-carboxylate] | 579 | – |
| CNC(=O)N1CCC(c2ccc3c(c2)[nH]c2c(C(N)=O)cnc(N4CCCC5(CCNC5=O)C4)c23)CC1 (centres unmarked) [Example 53, 7-[1-(methylcarbamoyl)piperidin-4-yl]-1-(1-oxo-2,7-diazaspiro[4.5]dec-7-yl)-5H-pyrido[4,3-b]indole-4-carboxamide] | 1.4 | – |
| COc1ccc(-c2ccc3c(c2)[nH]c2c(C(N)=O)cnc(N4CCC[C@@]5(CCN(C)C5=O)C4)c23)cn1 [Example 74, 7-(6-methoxypyridin-3-yl)-1-[(5R)-2-methyl-1-oxo-2,7-diazaspiro[4.5]dec-7-yl]-5H-pyrido[4,3-b]indole-4-carboxamide] | 8.9 | – |
| NC(=O)c1cnc(N2CCCC3(CCCNC3=O)C2)c2c1[nH]c1ccccc12 (centres unmarked) [Example 30, 1-(7-oxo-2,8-diazaspiro[5.5]undec-2-yl)-5H-pyrido[4,3-b]indole-4-carboxamide] | 28 | – |
| NC(=O)c1cnc(N2CCC[C@]3(CCCN(c4ccc(F)cc4)C3=O)C2)c2c1[nH]c1ccc(F)cc12 [Example 7, 8-fluoro-1-[(6S)-8-(4-fluorophenyl)-7-oxo-2,8-diazaspiro[5.5]undec-2-yl]-5H-pyrido[4,3-b]indole-4-carboxamide] | 34.2 | – |
| NC(=O)c1cnc(N2CCC3(CCCN(c4ccc(F)cc4)C3=O)C2)c2c1[nH]c1ccccc12 (centres unmarked) [Example 33, 1-[7-(4-fluorophenyl)-6-oxo-2,7-diazaspiro[4.5]dec-2-yl]-5H-pyrido[4,3-b]indole-4-carboxamide] | 212 | – |
| Cc1noc(C)c1-c1ccc2c(c1)[nH]c1c(C(N)=O)cnc(N3CCC[C@@]4(CCN(C)C4=O)C3)c12 [Example 80, 7-(3,5-dimethylisoxazol-4-yl)-1-[(5R)-2-methyl-1-oxo-2,7-diazaspiro[4.5]dec-7-yl]-5H-pyrido[4,3-b]indole-4-carboxamide] | 12.7 | – |
| NC(=O)c1cnc(N2CCC[C@@]3(C2)C(=O)NC[C@@H]3c2ccccc2)c2c1[nH]c1ccccc12 (single isomer, unassigned) [Example 88, 1-[(trans)-1-oxo-4-phenyl-2,7-diazaspiro[4.5]dec-7-yl]-5H-pyrido[4,3-b]indole-4-carboxamide] | 77.8 | – |
| NC(=O)c1cnc(N2CCC[C@@]3(CCCN(c4ccc(F)cc4)C3=O)C2)c2c1[nH]c1ccc(C(=O)O)cc12 [Example 8, 4-carbamoyl-1-[(6R)-8-(4-fluorophenyl)-7-oxo-2,8-diazaspiro[5.5]undec-2-yl]-5H-pyrido[4,3-b]indole-8-carboxylic acid] | 12.6 | – |
| NC(=O)c1cnc(N2CCC[C@]3(CCCN(c4ccc(F)cc4)C3=O)C2)c2c1[nH]c1ccccc12 [Example 2, (S)-1-(8-(4-fluorophenyl)-7-oxo-2,8-diazaspiro[5.5]undecan-2-yl)-5H-pyrido[4,3-b]indole-4-carboxamide] | 12.9 | – |
| CN1CC[C@@]2(CCCN(c3ncc(C(N)=O)c4[nH]c5cc(-c6ccc(C(O)C(F)(F)F)cc6)ccc5c34)C2)C1=O (stereo partly drawn) [Example 78, 1-[(5R)-2-methyl-1-oxo-2,7-diazaspiro[4.5]dec-7-yl]-7-[4-(2,2,2-trifluoro-1-hydroxyethyl)phenyl]-5H-pyrido[4,3-b]indole-4-carboxamide] | 59.9 | – |
| NC(=O)c1cnc(N2CCC[C@@]3(C2)C(=O)NC[C@@H]3O)c2c1[nH]c1ccccc12 [Example 18, 1-[(4R,5S)-4-hydroxy-1-oxo-2,7-diazaspiro[4.5]dec-7-yl]-5H-pyrido[4,3-b]indole-4-carboxamide] | 117 | – |
